This is an account of results in PMC6021032, “Antimycobacterial activity of nitrogen heterocycles derivatives: 7-(pyridine-4-yl)-indolizine derivatives. Part VII^8–12” (Journal of Enzyme Inhibition and Medicinal Chemistry, 2017).

This test relates to THP-1 cell line infected with Mtb. Nature of the test: Intracellular activity assay, luminescence. The class given is cell-based, Mycobacterium tuberculosis. As to conditions: Mycobacterium tuberculosis, Mtb-infected THP-1 cells, 72 h. The protocol:
Since the overall efficacy of any anti TB drug will be improved by its ability to traffic into the macrophage phagosome containing replicating bacteria, we evaluated the intracellular activity of compounds[24]. This was measured by using THP-1 cell line infected with Mtb. Infected cells were exposed to compounds for 72 h and viable bacterial counts were measured using luminescence as a measure of intracellular growth.
Assay (Promega) which uses ATP as an indicator of cell viability. Relative luminescent units (RLU) were measured using a Biotek Synergy 4 plate reader. The dose response curve was fitted using the Levenberg–Marquardt algorithm. The IC50 was defined as the compound […]
Intracellular Activity Assay
The activity of compounds against intracellular bacteria was determined by measuring viability in infected THP-1 cell after 3 days in the presence of test compounds. Compounds were prepared as 10-point three-fold serial dilutions in DMSO. The highest concentration of […]
THP-1 cells were cultured in complete RPMI and differentiated into macrophage-like cells using 80 nM PMA overnight at 37°C, 5% CO2. THP-1 cells were infected with a luminescent strain of H37Rv (which constitutively expresses luxABCDE) at a multiplicity of infection of 1 and incubated overnight at 37°C, 5% CO2. Infected cells were recovered using Accutase/EDTA solution, washed twice with PBS to remove extracellular bacteria and seeded into assay pates. Compound dilutions were added to a final DMSO concentration of 0.5%.
Assay plates were incubated for 72 h at 37°C, 5% CO2. Each run included isoniazid as a control. Relative luminescent units (RLU) were measured using a Biotek Synergy 2 plate reader. The dose response curve was fitted using the Levenberg–Marquardt algorithm. The […]
inhibition of growth respectively.
3. Cycle 3 – Absorption, distribution, metabolism, excretion and toxicity (ADMET)
3.1. Plasma Protein Binding Assay
Compounds were added to human plasma at a fixed concentration of 5 µM. The mixture was dialyzed in a RED device (Rapid Equilibrium Dialysis, Pierce) against PBS and incubated on an orbital shaker for 4 h at 37 °C. Aliquots from plasma and PBS sides were collected; an equal volume of PBS was added to the plasma sample, and an equal volume of plasma was added to the PBS sample. Three volumes of methanol (containing the internal binding standard propranolol) was added to precipitate the proteins and release the compound.
Each compound was tested in duplicate. Samples were centrifuged, the supernatant was […]

Usually IC50 stands for the concentration needed to halve the response being measured. As a reminder, the IC90 is the point of the concentration-response curve where the effect stands at 90%. On to `CCOC(=O)c1cc(C(=O)c2ccc(Cl)cc2)n2ccc(-c3cc[n+](CC(=O)c4ccc(C)cc4)cc3)cc12` [Compound 6i], for which the IC50 (read-out: IC50 intracell) worked out at 10 µM. Also, the IC90 (read-out: IC90 intracell) came to 48 µM.
